Experimental data published in patent US9056858B2, “Indazole and pyrazolopyridine compounds as CCR1 receptor antagonists” (Boehringer Ingelheim International GmbH, priority 2009, dated 2015).

What follows are compounds tested against T1, CCR1 (Homo sapiens, UniProt P32246) (assay: functional cellular assay measuring calcium flux in CCR1 transfected cells (block of CCR1/MIP-1α interaction)). Conditions: cells stably expressing recombinant CCR1 and G-alpha-16, MIP-1alpha added at EC80.
T1 construct: host or cells: Non-adherent cells
T1 sequence (P32246 1-355): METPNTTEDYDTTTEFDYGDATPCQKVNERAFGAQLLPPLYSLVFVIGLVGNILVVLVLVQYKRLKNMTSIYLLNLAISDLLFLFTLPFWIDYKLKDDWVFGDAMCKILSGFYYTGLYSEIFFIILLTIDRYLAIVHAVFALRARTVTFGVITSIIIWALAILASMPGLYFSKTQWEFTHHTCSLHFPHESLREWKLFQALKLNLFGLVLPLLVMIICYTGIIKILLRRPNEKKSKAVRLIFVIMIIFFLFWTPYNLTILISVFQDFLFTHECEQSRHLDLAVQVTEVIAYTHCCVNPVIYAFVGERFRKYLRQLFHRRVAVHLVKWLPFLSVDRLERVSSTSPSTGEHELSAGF
Format: cell-based
Protocol: Compounds are assessed for the ability to block the interaction of CCR1 and MIP-1α in a functional cellular assay measuring calcium flux in CCR1 transfected cells.
Non-adherent cells purchased from Chemicon Corporation (HTS005C), stably expressing recombinant CCR1 and G-alpha-16 are grown in RPMI 1640 medium (Mediatech 10-080-CM) supplemented with 10% FBS, 0.4 mg/mL Geneticin and penicillin/streptomycin. On the day of the assay, the cells are loaded with Calcium 4 dye (Molecular Devices R7448) with Probenecid (Invitrogen P346400) at 8E5 cells/mL for 1 hour at room temperature. After 1 hour, they are seeded in a 384-well tissue culture-treated plate at a density of 20,000 cells/well. Appropriately diluted test compound is added to the well to achieve a top concentration of 3,000 nM (diluted 4-fold with 10 doses total). The final concentration of DMSO is 1%. The buffer is HBSS (Invitrogen 14025) with 20 mM HEPES at pH 7.4. The cells incubate 30 minutes at 37 C and then 30 minutes at room temperature. The plates are transferred to the […] FDSS6000 where MIP-1alpha in 1% BSA is added at the EC80 final concentration. All plates must be read within 4 hours of the start of dye-loading. Wells +/− MIP-1alpha containing diluted DMSO instead of compound serve as the controls. Data are analyzed using Activity Base software.
With `CS(=O)(=O)c1cc(C2(NC(=O)c3cccc4c3cnn4-c3ccc(F)cc3)CC2)ccn1` [1-(4-Fluoro-phenyl)-1H-indazole-4-carboxylic acid [1-(2-methanesulfonyl-pyridin-4-yl)-cyclopropyl]-amide] the IC50 was 4 nM. `O=C(NC1(c2nncs2)CC1)c1cncc2c1cnn2-c1ccc(F)cc1` [1-(4-Fluoro-phenyl)-1H-pyrazolo[3,4-c]pyridine-4-carboxylic acid (1-1,3,4-thiadiazol-2-yl-cyclopropyl)-amide] showed an IC50 of 265 nM. In the case of `Cc1cccc(C2(NC(=O)c3cncc4c3cnn4-c3ccc(F)cc3)CC2)c1` [1-(4-Fluoro-phenyl)-1H-pyrazolo[3,4-c]pyridine-4-carboxylic acid (1-m-tolyl-cyclopropyl)-amide], the IC50 is reported as 26 nM. Compound `Cc1ccccc1C1(NC(=O)c2cncc3c2cnn3-c2ccc(F)cc2)CC1` [1-(4-Fluoro-phenyl)-1H-pyrazolo[3,4-c]pyridine-4-carboxylic acid (1-o-tolyl-cyclopropyl)-amide] has an IC50 of 61 nM. For `Cc1ccc(C2(NC(=O)c3cncc4c3cnn4-c3ccc(F)cc3)CC2)cc1` [1-(4-Fluoro-phenyl)-1H-pyrazolo[3,4-c]pyridine-4-carboxylic acid (1-p-tolyl-cyclopropyl)-amide], the IC50 was 14 nM. `O=C(NC1(c2ccccc2)CC1)c1cncc2c1cnn2-c1ccc(F)cc1` [1-(4-Fluoro-phenyl)-1H-pyrazolo[3,4-c]pyridine-4-carboxylic acid (1-phenyl-cyclopropyl)-amide] was tested, and the IC50 was 109 nM. `O=C(NC1(c2cccnc2)CC1)c1cncc2c1cnn2-c1ccc(F)cc1` [1-(4-Fluoro-phenyl)-1H-pyrazolo[3,4-c]pyridine-4-carboxylic acid (1-pyridin-3-yl-cyclopropyl)-amide] was tested, and the IC50 was 88 nM. `O=C(NC1(c2ccncc2)CC1)c1cncc2c1cnn2-c1ccc(F)cc1` [1-(4-Fluoro-phenyl)-1H-pyrazolo[3,4-c]pyridine-4-carboxylic acid (1-pyridin-4-yl-cyclopropyl)-amide] was tested, and the IC50 was 18 nM. `O=C(NC1(c2ccnc(Br)c2)CCC1)c1cncc2c1cnn2-c1ccc(F)cc1` [1-(4-Fluoro-phenyl)-1H-pyrazolo[3,4-c]pyridine-4-carboxylic acid [1-(2-bromo-pyridin-4-yl)-cyclobutyl]-amide] was tested, and the IC50 was 3 nM. `O=C(NC1(c2ccnc(Br)c2)CC1)c1cncc2c1cnn2-c1ccc(F)cc1` [1-(4-Fluoro-phenyl)-1H-pyrazolo[3,4-c]pyridine-4-carboxylic acid [1-(2-bromo-pyridin-4-yl)-cyclopropyl]-amide] was tested, and the IC50 was 0.5 nM. `Cc1nc(C2(NC(=O)c3cncc4c3cnn4-c3ccc(F)cc3)CC2)cs1` [1-(4-Fluoro-phenyl)-1H-pyrazolo[3,4-c]pyridine-4-carboxylic acid [1-(2-methyl-thiazol-4-yl)-cyclopropyl]-amide] was tested, and the IC50 was 99 nM. With `O=C(NC1(c2cccc(Br)c2)CC1)c1cncc2c1cnn2-c1ccc(F)cc1` [1-(4-Fluoro-phenyl)-1H-pyrazolo[3,4-c]pyridine-4-carboxylic acid [1-(3-bromo-phenyl)-cyclopropyl]-amide] the IC50 was 1 nM. `NC(=O)c1cccc(C2(NC(=O)c3cncc4c3cnn4-c3ccc(F)cc3)CC2)c1` [1-(4-Fluoro-phenyl)-1H-pyrazolo[3,4-c]pyridine-4-carboxylic acid [1-(3-carbamoyl-phenyl)-cyclopropyl]-amide] showed an IC50 of 40 nM. `O=C(NC1(c2cccc(Cl)c2)CC1)c1cncc2c1cnn2-c1ccc(F)cc1` [1-(4-Fluoro-phenyl)-1H-pyrazolo[3,4-c]pyridine-4-carboxylic acid [1-(3-chloro-phenyl)-cyclopropyl]-amide] showed an IC50 of 3 nM. `O=C(NC1(c2nc(C3CC3)no2)CC1)c1cncc2c1cnn2-c1ccc(F)cc1` [1-(4-Fluoro-phenyl)-1H-pyrazolo[3,4-c]pyridine-4-carboxylic acid [1-(3-cyclopropyl-1,2,4-oxadiazol-5-yl)-cyclopropyl]-amide] gave an IC50 of 11 nM. For `O=C(NC1(c2cccc(F)c2)CC1)c1cncc2c1cnn2-c1ccc(F)cc1` [1-(4-Fluoro-phenyl)-1H-pyrazolo[3,4-c]pyridine-4-carboxylic acid [1-(3-fluoro-phenyl)-cyclopropyl]-amide], the IC50 was 13 nM. `CS(=O)(=O)c1cccc(C2(NC(=O)c3cncc4c3cnn4-c3ccc(F)cc3)CC2)c1` [1-(4-Fluoro-phenyl)-1H-pyrazolo[3,4-c]pyridine-4-carboxylic acid [1-(3-methanesulfonyl-phenyl)-cyclopropyl]-amide] showed an IC50 of 1 nM. For `COc1cccc(C2(NC(=O)c3cncc4c3cnn4-c3ccc(F)cc3)CC2)c1` [1-(4-Fluoro-phenyl)-1H-pyrazolo[3,4-c]pyridine-4-carboxylic acid [1-(3-methoxy-phenyl)-cyclopropyl]-amide], the IC50 was 5 nM. In the case of `CNC(=O)c1cccc(C2(NC(=O)c3cncc4c3cnn4-c3ccc(F)cc3)CC2)c1` [1-(4-Fluoro-phenyl)-1H-pyrazolo[3,4-c]pyridine-4-carboxylic acid [1-(3-methylcarbamoyl-phenyl)-cyclopropyl]-amide], the IC50 is reported as 2 nM. Work on `NS(=O)(=O)c1cccc(C2(NC(=O)c3cncc4c3cnn4-c3ccc(F)cc3)CC2)c1` [1-(4-Fluoro-phenyl)-1H-pyrazolo[3,4-c]pyridine-4-carboxylic acid [1-(3-sulfamoyl-phenyl)-cyclopropyl]-amide] yielded an IC50 of 3 nM. `O=C(NC1(c2cccc(C(F)(F)F)c2)CC1)c1cncc2c1cnn2-c1ccc(F)cc1` [1-(4-Fluoro-phenyl)-1H-pyrazolo[3,4-c]pyridine-4-carboxylic acid [1-(3-trifluoromethyl-phenyl)-cyclopropyl]-amide] showed an IC50 of 0.4 nM. Compound `NCc1ccnc(C2(NC(=O)c3cncc4c3cnn4-c3ccc(F)cc3)CC2)c1` [1-(4-Fluoro-phenyl)-1H-pyrazolo[3,4-c]pyridine-4-carboxylic acid [1-(4-aminomethyl-pyridin-2-yl)-cyclopropyl]-amide] has an IC50 of 290 nM. Compound `O=C(NC1(c2ccc(Br)cc2)CC1)c1cncc2c1cnn2-c1ccc(F)cc1` [1-(4-Fluoro-phenyl)-1H-pyrazolo[3,4-c]pyridine-4-carboxylic acid [1-(4-bromo-phenyl)-cyclopropyl]-amide] has an IC50 of 4 nM. For `O=C(NC1(c2ccc(Cl)cc2)CC1)c1cncc2c1cnn2-c1ccc(F)cc1` [1-(4-Fluoro-phenyl)-1H-pyrazolo[3,4-c]pyridine-4-carboxylic acid [1-(4-chloro-phenyl)-cyclopropyl]-amide], the IC50 was 10 nM. `O=C(NC1(c2cc(Cl)ccn2)CC1)c1cncc2c1cnn2-c1ccc(F)cc1` [1-(4-Fluoro-phenyl)-1H-pyrazolo[3,4-c]pyridine-4-carboxylic acid [1-(4-chloro-pyridin-2-yl)-cyclopropyl]-amide] gave an IC50 of 17 nM. `O=C(NC1(c2ccc(F)cc2)CCC1)c1cncc2c1cnn2-c1ccc(F)cc1` [1-(4-Fluoro-phenyl)-1H-pyrazolo[3,4-c]pyridine-4-carboxylic acid [1-(4-fluoro-phenyl)-cyclobutyl]-amide] was tested, and the IC50 was 62 nM. For `O=C(NC1(c2ccc(F)cc2)CC1)c1cncc2c1cnn2-c1ccc(F)cc1` [1-(4-Fluoro-phenyl)-1H-pyrazolo[3,4-c]pyridine-4-carboxylic acid [1-(4-fluoro-phenyl)-cyclopropyl]-amide], the IC50 was 75 nM. Work on `O=C(NC1(c2cc(I)ccn2)CC1)c1cncc2c1cnn2-c1ccc(F)cc1` [1-(4-Fluoro-phenyl)-1H-pyrazolo[3,4-c]pyridine-4-carboxylic acid [1-(4-iodo-pyridin-2-yl)-cyclopropyl]-amide] yielded an IC50 of 2 nM. Compound `COc1ccc(C2(NC(=O)c3cncc4c3cnn4-c3ccc(F)cc3)CCC2)cc1` [1-(4-Fluoro-phenyl)-1H-pyrazolo[3,4-c]pyridine-4-carboxylic acid [1-(4-methoxy-phenyl)-cyclobutyl]-amide] has an IC50 of 51 nM. In the case of `COc1ccc(C2(NC(=O)c3cncc4c3cnn4-c3ccc(F)cc3)CC2)cc1` [1-(4-Fluoro-phenyl)-1H-pyrazolo[3,4-c]pyridine-4-carboxylic acid [1-(4-methoxy-phenyl)-cyclopropyl]-amide], the IC50 is reported as 17 nM. Work on `COc1ccnc(C2(NC(=O)c3cncc4c3cnn4-c3ccc(F)cc3)CC2)c1` [1-(4-Fluoro-phenyl)-1H-pyrazolo[3,4-c]pyridine-4-carboxylic acid [1-(4-methoxy-pyridin-2-yl)-cyclopropyl]-amide] yielded an IC50 of 31 nM. For `NCc1ccc(C2(NC(=O)c3cncc4c3cnn4-c3ccc(F)cc3)CC2)nc1` [1-(4-Fluoro-phenyl)-1H-pyrazolo[3,4-c]pyridine-4-carboxylic acid [1-(5-aminomethyl-pyridin-2-yl)-cyclopropyl]-amide], the IC50 was 705 nM. In the case of `O=C(NC1(c2ccc(Br)cn2)CC1)c1cncc2c1cnn2-c1ccc(F)cc1` [1-(4-Fluoro-phenyl)-1H-pyrazolo[3,4-c]pyridine-4-carboxylic acid [1-(5-bromo-pyridin-2-yl)-cyclopropyl]-amide], the IC50 is reported as 9 nM.
